This is an account of results in US10538528B2, “5H-pyrrolo[2,3-D]pyrimidin-6(7H)-one derivative” (Taiho Pharmaceutical Co., Ltd., priority 2016, dated 2020).

In general, IC50 refers to the concentration that gives 50% inhibition. A word on the GI50: it is the concentration giving 50% growth inhibition.

The target in assay [1] is human Akt1 (Homo sapiens (Human), UniProt P31749). As to the kind of experiment: Inhibitory effects on Akt1 kinase activity (TR-FRET, biotinylated Crosstide). Conditions: Akt1, ATP 150 μM, pre-incubation 120 minutes at 25° C.; read-out: AKT inhibitory activity IC50. In kind it is biochemical. The procedure: Akt1 was prepared and assays of inhibitory activity of the compound according to the present invention against Akt1 kinase activity in vitro were conducted according to the method described in Biochem. J., vol. 385, pp. 399-408, 2005 and Cancer Res., vol. 68, pp. 2366-2374, 2008. In the preparation of Akt1 protein, human Akt1 tagged with the middle T antigen was expressed in an insect cell Sf9, Akt1 was prepared through affinity purification and activation by PDK1, and the resultant was stored at −80° C. until the inhibition assays of the compounds. In the inhibition assay of the compounds, Akt1 and the compound according to the present invention were subjected to pre-incubation at 25° C. for 120 minutes in a reaction buffer (15 mM Tris-HCl, pH 7.5, 0.01% Tween-20, 2 mM DTT). Subsequently, biotinylated Crosstide (biotin-[…], Millipore), MgCl2, and ATP were added as substrates at the final concentration of 500 nM, 10 mM, and 150 μM, respectively, and the reaction was allowed to proceed at 25° C. for 60 minutes. EDTA was added to the final concentration of 40 mM to terminate the reaction, a detection liquid containing the Eu-anti-phospho-Crosstide antibody (PerkinElmer) and SureLight APC-SA (PerkinElmer) at the final concentration of 0.5 nM and 62.5 nM, respectively was added, and the reaction was allowed to proceed at room temperature for 2 hours. In the end, the fluorescence levels irradiated with an excitation light of 337 nm were assayed at two different wavelength levels (i.e., 620 nm and 665 nm) using PI-HERAstar FS (BMG LABTECH) or PHERAstar (BMG LABTECH). The level of the phosphorylation reaction was determined on the basis of the ratio of fluorescence levels at two wavelength levels, and the concentration of the compound at which phosphorylation could be inhibited by 50% was defined as the IC50 level (nM) and shown in Table 2.
human Akt1, sequence (P31749 whole entry): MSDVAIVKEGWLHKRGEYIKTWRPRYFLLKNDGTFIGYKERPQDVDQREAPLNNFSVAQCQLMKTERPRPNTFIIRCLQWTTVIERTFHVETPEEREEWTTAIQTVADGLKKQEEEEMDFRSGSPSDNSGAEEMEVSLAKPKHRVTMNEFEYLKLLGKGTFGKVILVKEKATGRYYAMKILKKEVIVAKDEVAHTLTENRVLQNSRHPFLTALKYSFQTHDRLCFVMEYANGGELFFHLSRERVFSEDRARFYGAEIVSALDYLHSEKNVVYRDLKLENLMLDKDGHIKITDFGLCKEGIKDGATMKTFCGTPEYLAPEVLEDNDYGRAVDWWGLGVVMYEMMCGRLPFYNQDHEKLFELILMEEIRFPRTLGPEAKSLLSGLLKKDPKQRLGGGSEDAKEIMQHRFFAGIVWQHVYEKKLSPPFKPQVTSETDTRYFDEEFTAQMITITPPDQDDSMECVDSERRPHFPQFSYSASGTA
As reference compounds, conventional Comparative Example A (WO 2010/056563 (Example 31)) and Comparative Example B having inhibitory activity against Akt were used.

Assay [2] concerns RKO cells (human colon cancer cell lines). As to the kind of experiment: Cell growth inhibition study using RKO cells (CellTiter-Glo). In kind it is cell-based. Conditions: 72 h, 3 days. The procedure: The in vitro cell growth inhibition study using RKO cells (human colon cancer cell lines) was conducted as described below.
RKO cells (ATCC, Cat#: CRL-2577) cultured in a MEM medium (GIBCO, Cat#:10370-088) supplemented with 10% FBS, 1 mM L-glutamine (GIBCO, Cat#:25030), and 1 mM sodium pyruvate (GIBCO, Cat#:11360) were seeded in a 96-well flat bottom microplate (COSTAR, Cat#:3904) at 2×10^3 cells (150 μl) and cultured in an incubator containing 5% CO2 at 37° C. for 1 day. The compound according to the present invention subjected to serial dilution with dimethyl sulfoxide or dimethyl sulfoxide alone was added to a MEM medium containing 10% FBS, 1 mM L-glutamine, and 1 mM sodium pyruvate. The resultant medium containing the compound or dimethyl sulfoxide alone was added to the RKO cells in the culture plate by 50 μl/well at the final concentration of the compound to 10, 3, 1, 0.3, 0.1, 0.03, 0.01, 0.003, and 0 μM, respectively. Another RKO cell culture plate separately prepared was allowed to stand at room temperature for 30 minutes, then 100 μl of the medium was removed, and added 50 μl of CellTiter-Glo® 2.0 Assay (Promega, Cat#:G9242) to each well. After the plates were placed in the dark for 10 minutes, the luminescence level derived from viable cells in each well was measured by the Multimode Plate Reader (PerkinElmer, EnSpire). The cells treated with the compound or dimethyl sulfoxide alone were cultured at 37° C. in an incubator containing 5% CO2 for an additional 3 days. After incubation, the culture plate was placed at room temperature for 30 minutes, and 150 μl of the supernatant was removed from each well to adjust the amount of the remaining cell culture solution to 50 μl each. To 50 μl of the remaining cell culture solution, the equivalent amount of CellTiter-Glo® 2.0 Assay was added. After the cell culture plate was placed in the dark for 10 minutes, the luminescence level derived from viable cells in each well was assayed with the use of the Multimode Plate Reader. The cell growth rate was calculated by the formulae shown below and the concentration at which the cell growth rate became 50%; i.e., the concentration of the compound according to the present invention at which cell growth would be inhibited by 50% was determined (GI50 (nM)). Cell growth rate (%)=(T−C0)/(C−C0)×100, provided that T is equal to or greater than C0(T≥C0) Cell growth rate (%)=(T−C0)/C0×100, provided that T is less than C0(T<C0) C0: Luminescence level in each well when the compound is added (count per second) C: Luminescence level in each well when dimethyl sulfoxide is added alone (count per second) T: Luminescence level in each well when the test compound is added (count per second)
As control compounds, conventional Comparative Example A (WO 2010/056563 (Example 31)) and Comparative Example B having inhibitory activity against Akt were used.
The GI50 levels of representative compounds according to the present invention and reference compounds in RKO cells were evaluated, and the results are shown in Table 5.

In assay [3] the target is Rsk1 (Homo sapiens (Human), UniProt Q15418). Put plainly: Inhibitory effects on Rsk1 kinase activity (QSS Assist FP assay kit). Conditions: Rsk1, ATP 30 μM; read-out: Rsk inhibitory activity IC50. Format: biochemical. The method, then:
Inhibitory activity of the compound according to the present invention on Rsk1 kinase activity in vitro was assayed using the QSS Assist™ FP assay kit (Carna Biosciences, Inc.).
In the inhibition assay of inhibitory activity of the compound, the test compound was diluted by serial dilution with dimethyl sulfoxide (DMSO). Subsequently, an Rsk1 protein, a substrate peptide (final concentration: 100 nM), magnesium chloride (final concentration: 10 mM), ATP (final concentration: 30 μM), and the solution of the test compound in DMSO (DMSO final concentration: 5%) were added to the kinase reaction buffer (20 mM HEPES (pH 7.4), 2 mM dithiothreitol, 0.01% Tween-20), and the mixture was incubated at 25° C. for 40 minutes to perform the kinase reaction. The IMAP Progressive Binding Reagent diluted to 400-fold with the IMAP Progressive Binding Buffer A (Molecular Devices, LLC) was added to terminate the kinase reaction.

For assay [4], the target named is S6K1 (Homo sapiens (Human), UniProt P23443). Put plainly: Inhibitory effects on S6K1 kinase activity (QSS Assist FP assay kit). Conditions: S6K1, ATP 25 μM; read-out: S6K inhibitory activity IC50. In kind it is biochemical. The method, then:
Inhibitory activity of the compound according to the present invention on S6K1 kinase activity in vitro was assayed using the QSS Assist™ FP assay kit (Carna Biosciences, Inc.).
In the inhibition assay for inhibitory activity of the compound, the test compound was diluted by serial dilution with dimethyl sulfoxide (DMSO). Subsequently, an S6K protein, a substrate peptide (final concentration: 100 nM), magnesium chloride (final concentration: 5 mM), ATP (final concentration: 25 μM), and the solution of the test compound in DMSO (final DMSO concentration: 5%) were added to the kinase reaction buffer (20 mM HEPES (pH 7.4), 2 mM dithiothreitol, 0.01% Tween-20), and the mixture was incubated at 25° C. for 30 minutes to perform the kinase reaction. The IMAP Progressive Binding Reagent diluted to 400-fold with the IMAP Progressive Binding Buffer A (Molecular Devices, LLC) was added thereto to terminate the kinase reaction. The reaction product was allowed to stand at room temperature in the dark for 120 minutes and assayed with the use of PHERAstar (BMG LABTECH; excitation wavelength: 485 nm; detection wavelength: 520 nm). The level of phosphorylation reaction was determined based on the degree of fluorescence polarization, and the concentration of the compound at which phosphorylation could be inhibited by 50% was defined as the IC50 level (nM) and shown in Table 4.

Rsk1, sequence (Q15418 whole entry): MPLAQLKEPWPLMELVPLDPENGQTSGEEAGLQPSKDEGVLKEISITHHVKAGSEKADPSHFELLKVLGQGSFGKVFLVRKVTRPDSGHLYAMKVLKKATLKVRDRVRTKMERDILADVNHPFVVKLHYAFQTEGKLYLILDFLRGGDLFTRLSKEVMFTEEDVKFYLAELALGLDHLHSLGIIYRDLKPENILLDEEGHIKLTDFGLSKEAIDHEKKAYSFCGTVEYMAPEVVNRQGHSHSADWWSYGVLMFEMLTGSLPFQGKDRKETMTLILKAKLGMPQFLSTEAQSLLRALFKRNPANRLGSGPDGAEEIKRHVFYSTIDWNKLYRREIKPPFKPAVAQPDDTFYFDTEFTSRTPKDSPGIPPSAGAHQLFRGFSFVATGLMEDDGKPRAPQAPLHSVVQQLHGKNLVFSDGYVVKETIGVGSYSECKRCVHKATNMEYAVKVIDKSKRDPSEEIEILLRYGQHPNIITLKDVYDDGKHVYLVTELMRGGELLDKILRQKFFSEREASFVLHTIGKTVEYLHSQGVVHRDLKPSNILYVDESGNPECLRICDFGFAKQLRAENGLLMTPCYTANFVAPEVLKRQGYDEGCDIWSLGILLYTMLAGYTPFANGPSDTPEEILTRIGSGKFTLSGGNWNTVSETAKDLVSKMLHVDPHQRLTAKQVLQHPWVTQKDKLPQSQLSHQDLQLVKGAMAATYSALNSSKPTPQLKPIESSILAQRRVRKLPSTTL
S6K1, sequence (P23443 whole entry): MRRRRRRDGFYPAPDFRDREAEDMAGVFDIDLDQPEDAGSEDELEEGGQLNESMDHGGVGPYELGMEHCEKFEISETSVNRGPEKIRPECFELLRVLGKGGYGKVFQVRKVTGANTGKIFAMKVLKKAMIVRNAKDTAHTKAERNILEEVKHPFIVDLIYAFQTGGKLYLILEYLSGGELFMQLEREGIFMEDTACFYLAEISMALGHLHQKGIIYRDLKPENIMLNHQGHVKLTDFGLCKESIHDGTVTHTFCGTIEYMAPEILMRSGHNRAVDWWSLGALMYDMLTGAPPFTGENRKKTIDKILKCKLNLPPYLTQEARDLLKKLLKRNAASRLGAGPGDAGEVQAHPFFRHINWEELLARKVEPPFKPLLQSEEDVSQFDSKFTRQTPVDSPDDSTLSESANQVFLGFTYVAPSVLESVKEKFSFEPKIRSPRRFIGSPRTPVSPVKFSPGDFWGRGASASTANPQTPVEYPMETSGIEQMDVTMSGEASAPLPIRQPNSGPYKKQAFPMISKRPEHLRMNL

Take `CC(C)(C)NCCNc1ccc(-c2cncc(F)c2)nc1C1CCN(c2ncnc3c2C(C)(C)C(=O)N3)CC1` [Compound 1, 4-(4-(5-((2-(Tert-butylamino)ethyl)amino)-5′-fluoro-[2,3′-bipyridin]-6-yl)piperidin-1-yl)-5,5-dimethyl-5H-pyrrolo[2,3-d]pyrimidin-6(7H)-one]: the IC50 was found to be 6.8 nM in assay [1], 1.5 nM in assay [3] and 0.4 nM in assay [4]. The compound further yielded a GI50 in assay [2] of 136 nM.

As to `CC1C(=O)Nc2ncnc(N3CCC(c4nc(-c5ccnc(F)c5)ccc4NCCN4CCCC4)CC3)c21` (stereo not shown) [Compound 13, 4-(4-(2′-Fluoro-5-((2-(pyrrolidin-1-yl)ethyl)amino)-[2,4′-bipyridin]-6-yl)piperidin-1-yl)-5-methyl-5H-pyrrolo[2,3-d]pyrimidin-6(7H)-one], the IC50 was found to be 1.4 nM in assay [1], 1.4 nM in assay [3] and 0.4 nM in assay [4]. This compound gave a GI50 in assay [2] of 111 nM.

For `CC1C(=O)Nc2ncnc(N3CCC(c4nc(-c5ccoc5)ccc4NCCN4CCCC4)CC3)c21` (stereo not shown) [Compound 14, 4-(4-(6-(Furan-3-yl)-3-((2-(pyrrolidin-1-yl)ethyl)amino)pyridin-2-yl)piperidin-1-yl)-5-methyl-5H-pyrrolo[2,3-d]pyrimidin-6(7H)-one], the figures for the IC50 in assay [1], in assay [3] and in assay [4] were 0.5 nM, 1.7 nM and 0.9 nM, respectively. Further, in assay [2], it took 118 nM to inhibit growth by half (GI50).

With `COc1cncc(-c2ccc(NCCNC(C)C)c(C3CCN(c4ncnc5c4C(C)C(=O)N5)CC3)n2)c1` (stereo not shown) [Compound 15, 4-(4-(5-((2-(Isopropylamino)ethyl)amino)-5′-methoxy-[2,3′-bipyridin]-6-yl)piperidin-1-yl)-5-methyl-5H-pyrrolo[2,3-d]pyrimidin-6(7H)-one], the IC50 in assay [1] is 2.1 nM; in assay [3], 1.1 nM; in assay [4] it was 0.7 nM. In assay [2], the GI50 came to 122 nM.

As for `CC1C(=O)Nc2ncnc(N3CCC(c4nc(-c5nccs5)ccc4NCCN4CCCC4)CC3)c21` (stereo not shown) [Compound 24, 5-Methyl-4-(4-(3-((2-(pyrrolidin-1-yl)ethyl)amino)-6-(thiazol-2-yl)pyridin-2-yl)piperidin-1-yl)-5H-pyrrolo[2,3-d]pyrimidin-6(7H)-one], the IC50 was 1.9 nM in assay [1] and 0.6 nM in assay [4]. The same compound showed a GI50 in assay [2] of 130 nM.

The compound `CC1C(=O)Nc2ncnc(N3CC=C(c4nc(-c5cncc(F)c5)ccc4NCCN4CCCC4)CC3)c21` (stereo not shown) [Compound 26, 4-(5-Fluoro-5′-((2-(pyrrolidin-1-yl)ethyl)amino)-5″,6″-dihydro-[3,2′:6′,4″-terpyridine-]-1″(2″H)-yl)-5-methyl-5H-pyrrolo[2,3-d]pyrimidin-6(7H)-one] yielded a GI50 in assay [2] of 124 nM. The IC50 in assay [4] turned out to be 0.6 nM.

Take `CC1C(=O)Nc2ncnc(N3CCC(c4cc(-c5cc(C(F)(F)F)nn5C)cnc4NCCN4CCCC4)CC3)c21` (stereo not shown) [Compound 27, 5-Methyl-4-(4-(5-(1-methyl-3-(trifluoromethyl)-1H-pyrazol-5-yl)-2-((2-(pyrrolidin-1-yl)ethyl)amino)pyridin-3-yl)piperidin-1-yl)-5H-pyrrolo[2,3-d]pyrimidin-6(7H)-one]: the IC50 in assay [1] came to 1.6 nM; in assay [3], 1.8 nM. The compound further had a GI50 in assay [2] of 48 nM.

In turn, `CC(C)(C)NCCNc1ccc(-c2nnc(C(F)(F)F)o2)nc1C1CCN(c2ncnc3c2C(C)(C)C(=O)N3)CC1` [Compound 32, 4-(4-(3-((2-(Tert-butylamino)ethyl)amino)-6-(5-(trifluoromethyl)-1,3,4-oxadiazol-2-yl)pyridin-2-yl)piperidin-1-yl)-5,5-dimethyl-5H-pyrrolo[2,3-d]pyrimidin-6(7H)-one] showed a GI50 in assay [2] of 89 nM.

As for `CC(C)(C)NCCNc1ccc(-c2nc(C(F)(F)F)no2)nc1C1CCN(c2ncnc3c2C(C)(C)C(=O)N3)CC1` [Compound 43, 4-(4-(3-((2-(Tert-butylamino)ethyl)amino)-6-(3-(trifluoromethyl)-1,2,4-oxadiazol-5-yl)pyridin-2-yl)piperidin-1-yl)-5,5-dimethyl-5H-pyrrolo[2,3-d]pyrimidin-6(7H)-one], the IC50 in assay [1] was found to be 1 nM; in assay [3], 0.4 nM; in assay [4], 0.4 nM.
